Test results: patent US9789066B2, “Process for making tablet using radiofrequency and lossy coated particles” (JOHNSON & JOHNSON CONSUMER INC., priority 2014, dated 2017)

Test: Dielectric measurement (e′, e″, Q value) by Slotted Line Method at 27 MHz
Format: physicochemical
Details: raw material
Text: The property of permittivity is the measure of the resistance to forming an electric field. For purposes of comparing materials in air, it is often convenient to describe the permittivity of material in air where the permittivity is more specifically called “relative permittivity” or ? r. This is a complex number represented by the following equation: ? r=e'-je'' where e' (the real portion of the complex number) is the dielectric constant (energy storage) and e'' (the imaginary portion of the complex number) is the dielectric loss or dissipation factor (energy dissipated as heat). The ratio of dielectric loss (e'') over the dielectric constant (e') is called the loss tangent (tan δ) or power factor. […] The Q value is affected by physical and chemical properties such as density (porosity/particle size), moisture (conductivity), temperature, and molecular polarizability. The measurements obtained by this method can eliminate the need to measure and evaluate these properties independently. […] The Q values were measured using a HP […] Slotted Line as sample holder (carriage removed) connected to Agilent […] to ports A and B (transmission mode). […] This process is referred to as the “Slotted Line Method.” Unless otherwise stated, the Slotted line method was used for the calculation of e', e'', and Q value herein with the frequency range set to 26-28 MHz (31 points resolution) and values of e' and e'' were recorded from the 27 MHz data point.

Loss Tangent: 0.0022 | e′: 1.6214 | e″: 0.0035
Structure (SMILES): OC[C@@H](O)[C@@H](O[C@H]1O[C@H](CO)[C@@H](O)[C@H](O)[C@H]1O)[C@H](O)[C@@H](O)CO [Maltitol (SweetPearl DC300), Maltitol]
